Laboratory results from EP0247900A1, “Topical methotrexate preparation for the treatment of hyperproliferative epithelial disease” (THE REGENTS OF THE UNIVERSITY OF CALIFORNIA, priority 1986, dated 1987).

Legend:
[1] = system: psoriatic epidermal DNA synthesis; assay: Intradermal administration of MTX; type: in vivo; details: administered intradermally, compared with systemic MTX
From the text: Thus, it has been discovered that MTX or its analogs can be administered topically in an effective manner to skin afflicted with a hyperproliferative epithelial disease avoiding, therefore, the serious side effects associated with systemic MTX administration.

psoriasis = details: 0.1% and 0.5% MTX in vehicle with 2.5% C-10-methylsulfoxide, six patients, daily for nine days; cited from earlier work
[2] = In vitro percutaneous penetration of MTX in glass diffusion cells
Protocol: Methotrexate was obtained from Lederle Laboratories, Pearl River, NY. Methotrexate (3',5',7-^3H)sodium (250 mCi/mmol) was obtained from Amersham and prior to use was purified by chromatography on thin-layer cellulose plates in 0.006 M potassium phosphate buffer, pH 6.0. Vehicle N was obtained from the Neutrogena Corporation. Los Angeles, CA.
The percutaneous penetration of MTX was measured in glass diffusion cells as previously described. McCullough et al (1976) J Invest Derm 66:103-107. Excised human skin obtained from abdominoplasty was used for these studies. First, 0.5 ml containing 10 µCi methotrexate-^3H and cold methotrexate to give a final concentration of 2% in various vehicles was applied to the epidermal surface (0.2 ml/cm^2). A total of […] methotrexate was applied to each diffusion cell. The dermal reservoir contained phosphate buffered saline. Three diffusion cells were run for each vehicle. Diffusion cells were incubated with constant stirring at 28°C. Methotrexate penetration was followed at various time points up to 48 hr by liquid scintillation counting. The test solution was removed after the 48 hr incubation period, and the epidermal surface was rinsed three times with vehicle in which the drug being tested was dissolved. […] The epidermis was separated by heating the skin for 1 min on a hot plate at 60°C. MTX was extracted from the epidermis and dermis utilizing the techniques described by Werkheiser et al (1962) J Pharmacol Exp Ther 137:162-166, which specifically disassociates MTX from cellular bound proteins. The stratum corneum was removed by repeated stripping with cellophane tape until the skin glistened.
In vitro percutaneous penetration studies were carried out according to the methods of Example I with formulations of a topical gel containing about 3% Azone and various concentrations of MTX.
Employing the methods described in Example I, various vehicles containing 2% by weight of tritiated MTX were tested in vitro on human skin.
Additional studies with the mini-pig model, as described in Example IV, were conducted to test various carriers with different concentrations of MTX and Azone. Formulations were applied daily for 7 days. Three sites per treatment area were injected with ^3H-UdR. Autoradiographs were scored at 4 wk. Techniques as described in Examples I and II were employed to measure percutaneous penetration and DNA synthesis.
Various vehicle formulations were evaluated in vitro at various MTX concentrations for penetration of MTX into the epidermis. Penetration was evaluated as described in Example I. Unless otherwise noted, all vehicles were a gel formulation that contained 3% Azone.

hairless mouse skin = assay: Skin changes after topical MTX in normal and essential fatty acid deficient hairless mice; type: in vivo, HRS/J albino hairless mice; details: three daily applications of 2% MTX in Vehicle N, untreated abdominal skin not similarly affected
Protocol: (§1) HRS/J albino hairless mice, age 2-3 months, were used for these experiments. For induction of the […] fatty acid deficiency, 3-week-old animals were fed an essential fatty acid deficient diet (Teklad) for 60 days.
Topical MTX preparations at various concentrations or vehicle control in the amount of 0.05 ml were applied to the backskin area of 1.5 cm by 3 cm daily for 1 or 3 days. Six to ten mice were used for each treatment group. Tritiated deoxyuridine was utilized as a precursor for assaying the effects of methotrexate on the de novo pathway for epidermal DNA synthesis. The incorporation of tritiated deoxyuridine into DNA depends on the normal functioning of dihydrofolate reductase which is blocked by methotrexate. At selected time points after single or repeated topical MTX applications, mice were injected IP with tritiated deoxyuridine (50-100 uCi) for measurement of epidermal DNA synthesis in treated backskin to determine the local effect of MTX. DNA synthesis was simultaneously measured in untreated abdominal skin of Vehicle N and MTX-treated animals to determine systemic effects of MTX at a distant site. […] Results of epidermal DNA synthesis were calculated as counts/minute/ug of DNA. The effects of MTX treatment on DNA synthesis of the back and abdomen were expressed as percentage of the DNA synthesis of Vehicle N treated back skin and untreated abdomin in control animals. […]

epidermal DNA synthesis [3] = assay: In vivo epidermal DNA synthesis (tritiated deoxyuridine incorporation) after topical MTX in hairless mice; set-up: species or system HRS/J albino hairless mice; details: for suppression of epidermal DNA synthesis in treated back skin: compared to Vehicle N treated control
From the text: Deoxyuridine (6-^3H) (25 Ci/mmol) was obtained from New England Nuclear. Other materials were obtained as described in Example I.
as §1
Six to ten mice were used for each treatment group. Tritiated deoxyuridine was utilized as a precursor for assaying the effects of methotrexate on the de novo pathway for epidermal DNA synthesis. The incorporation of tritiated deoxyuridine into DNA depends on the normal functioning of dihydrofolate reductase which is blocked by methotrexate. At selected time points after single or repeated topical MTX applications, mice were injected IP with tritiated deoxyuridine (50-100 uCi) for measurement of epidermal DNA synthesis in treated backskin to determine the local effect of MTX. DNA synthesis was simultaneously measured in untreated abdominal skin of Vehicle N and MTX-treated animals to determine systemic effects of MTX at a distant site. One hour after administration of isotope, animals were sacrificed by cervical dislocation, and treated backskin and untreated abdominal skin was obtained. Epidermis was removed after incubating the skin specimens for 1 hr at 37°C in 2 M sodium bromide. DNA was extracted and assayed using the technique described by Halprin et al (1979) J Invest Derm 73:359-363. Results of epidermal DNA synthesis were calculated as counts/minute/ug of DNA. The effects of MTX treatment on DNA synthesis of the back and abdomen were expressed as percentage of the DNA synthesis of Vehicle N treated back skin and untreated abdomin in control animals.

[4] = prior-art topical MTX preparations, in vitro and in vivo; cited from earlier work
epidermal DNA synthesis [5] = assay: In vivo epidermal labeling index (DNA synthesis) in the mini-pig model; set-up: species or system Mini-pigs; details: for Epidermal Labeling Index: applied daily for 7 days, mini-pig dorsal skin
Protocol: The formulations of Example III were tested for effect on in vivo DNA synthesis in the mini-pig model. Mini-pig skin closely resembles human skin and the effect of a drug on epidermal cell proliferation is a recognized test for the effectiveness of therapeutic protocols for hyperproliferative skin disease.
Mini-pigs were obtained from Charles River Laboratories, Inc. (Wilmington, MA). Drug preparations were applied to small areas of dorsal skin (ca 1 inch square) according to the selected application schedules. Six hours following the last drug application, tritiated thymidine was injected into the drug treatment sites for autoradiographic assessment of epidermal proliferation as measured by epidermal labeling index. Weinstein & and Van Scott, (1965) J. Invest. Derm. 44:413
A vehicle containing various concentrations of MTX was applied daily for 7 days. Tritiated deoxyuridine was injected into the treatment sites on day 7, as well as in untreated control area. DNA synthesis was measured as described in Example II.
Formulations were applied daily for 7 days. […] Autoradiographs were scored at 4 wk.

[6] = 0.1% Methotrexate in topical gel containing about 3% Azone
[7] = 0.5% Methotrexate in topical gel containing about 3% Azone
[8] = 1.0% Methotrexate in topical gel containing about 3% Azone

SMILES: CN(Cc1cnc2nc(N)nc(N)c2n1)c1ccc(C(=O)N[C@@H](CCC(=O)O)C(=O)O)cc1 [MTX, Methotrexate]
- biochemical effects and biological actions [1]: same biochemical effects (inhibition of psoriatic epidermal DNA synthesis) and biological actions (mitotic inhibition and damaged cell production) as systemic MTX
- clinical improvement (psoriasis): no significant improvement in any of the patients
- Cumulative Penetration 48 hr [2, 6]: 0.6 ± 0.2 µg
- Epidermal Content [2, 6]: 3.9 ± 0.3 µg
- Cumulative Penetration 48 hr [2, 7]: 7.5 ± 1.4 µg
- Epidermal Content [2, 7]: 24.1 ± 8.1 µg
- Cumulative Penetration 48 hr [2, 8]: 18.7 ± 6.1 µg
- Epidermal Content [2, 8]: 36.0 ± 11.7 µg
- effect on epidermis of treated skin (hairless mouse skin): marked epidermal atrophy
- effect on DNA synthesis in back skin and untreated abdominal skin (epidermal DNA synthesis [3]; four daily applications of MTX in Vehicle N): total suppression of DNA synthesis
- effect on DNA synthesis (epidermal DNA synthesis [3]; single application of MTX in Vehicle N): ineffective
- effect on DNA synthesis in treated skin (epidermal DNA synthesis [3]; three daily applications of 1% MTX in Vehicle N, 6 hr after the last treatment): produced inhibition of DNA synthesis
- systemic effect on DNA synthesis in untreated abdominal skin (epidermal DNA synthesis [3]; three daily applications of 2% MTX in Vehicle N, at 54 hr (6 hr after the last treatment)): no significant (p < 0.001) systemic methotrexate effect
- suppression of epidermal DNA synthesis in treated back skin (epidermal DNA synthesis [3]; three daily applications of 2% MTX in Vehicle N, at 54 hr): 50%
- local and systemic effect on DNA synthesis (epidermal DNA synthesis [3]; three daily applications of 2% MTX in Vehicle N, at 72 hr, 24 hr after the last treatment): both local and systemic effects were obtained
- suppression of epidermal DNA synthesis in treated back skin (epidermal DNA synthesis [3]; three daily applications of 2% MTX in Vehicle N, at 72 hr): 75%
- effect on DNA synthesis (epidermal DNA synthesis [3]; three daily applications of MTX in Vehicle N at concentrations lower than 1%): no local or systemic effect
- effect on epidermal DNA synthesis (epidermal DNA synthesis [3]; topical MTX (0.5%) in N-decylmethylsulfoxide): no effect on epidermal DNA synthesis
- percutaneous penetration of human skin [4]: negligible percutaneous penetration
- Epidermal Labeling Index (epidermal DNA synthesis [5]; 0.5% Methotrexate in gel with about 3% Azone): 0.0 ± 0.0%
- labeling intensity (rate of DNA synthesis) (epidermal DNA synthesis [5]; 0.5% and 1.0% MTX in Azone gel, daily for 7 days, compared to the vehicle control): slight decrease in labeling intensity
- Epidermal Labeling Index (epidermal DNA synthesis [5]; 1.0% Methotrexate in gel with about 3% Azone): 0.8 ± 1.4%
